The text below walks through data of patent US9708286B2, “Ingenol-3-acylates III and ingenol-3-carbamates” (LEO Laboratories Limited, priority 2010, dated 2017).

Holding throughout (type): cell-based
In assay [1] the test system is PMN's (polymorphonuclear leukocytes). As to the kind of experiment: Neutrophil oxidative burst. The settings on record: Leukocyte, 40 min, normalized to 5×10^−7 M PEP0005. In short, it runs like this:
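Human buffy-coat neutrophils (2.5×10^5/well) in HBSS with 0.1% BSA, 5 mM glucose treated with compound premixed with 10 μM hydroethidine for 40 min at RT; fluorescence read at 485/579 nm. Normalized to 5×10^−7 M PEP0005; Rel EC50 is midway between fitted top and bottom, Abs EC50 gives 50% of PEP0005 maximum.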

The test system of assay [2] is Primary human epidermal keratinocytes, HeKa. Briefly: HeKa cytokine release (IL-8). The settings on record: Homo sapiens, read-out: HeKa cytokine release (IL-8) Rel EC50 range. In short, it runs like this:
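Seeded cells exposed to compound dilutions for 6 h at 37° C; IL-8 in supernatant quantified by MSD sandwich electrochemiluminescence immunoassay. Effects normalized to positive control (1.5×10^−7 M PEP0005), four-parameter sigmoidal fit; Rel EC50 is concentration midway between fitted top and bottom.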

The subject of a further assay is HeLa cells. As to the kind of experiment: Necrosis assay. To be noted: Homo sapiens, 0.5 h, read-out: HeLa necrosis EC50 range. In short, it runs like this: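 HeLa cells treated with compound at 10 μM to 400 μM (final) for 30 min at 37° C., viability then measured by PrestoBlue fluorescence (ex 535/em 630 nm). Normalized to 1% DMSO and 400 μM ingenol mebutate controls; AbsEC50 from four-parameter sigmoidal fit.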

Where [3] appears, read: read-out: Neutrophil oxidative burst Rel EC50 range, PMN from buffy coats, 40 min at RT, hydroethidine fluorescence.

Where two headings read alike, the source gives them in different places.

The term EC50 denotes the concentration needed to bring the measured effect to its halfway point. Take `CC1=C[C@]23C(=O)[C@@H](C=C(CO)[C@@H](O)[C@]2(O)[C@H]1OC(=O)N1Cc2ccccc2C1)[C@H]1[C@@H](C[C@H]3C)C1(C)C` [Compound 745, Ingenol 3-(isoindoline-2-carboxylate)]: the EC50 in assay [1] (setting [3]) was less than 20 nM; in assay [2] (HEKa, 6 h), less than 20 nM; in the assay with HeLa cells (HeLa), 150000 to 350000 nM.

`CC1=C[C@]23C(=O)[C@@H](C=C(CO)[C@@H](O)[C@]2(O)[C@H]1OC(=O)N(C)CC1CCOCC1)[C@H]1[C@@H](C[C@H]3C)C1(C)C` [Compound 746, Ingenol 3-(N-methyl-N-(tetrahydropyran-4-ylmethyl)-carbamate)]: the EC50 was 20 to 100 nM in assay [1] (setting [3]); more than 100 nM in assay [2] (HEKa, 6 h); more than 350000 nM with HeLa cells (HeLa).

Turning to `CC1=C[C@]23C(=O)[C@@H](C=C(CO)[C@@H](O)[C@]2(O)[C@H]1OC(=O)N(C)C1CCOCC1)[C@H]1[C@@H](C[C@H]3C)C1(C)C` [Compound 747, Ingenol 3-(N-methyl-N-(tetrahydropyran-4-yl)-carbamate)], the EC50 in assay [1] (setting [3]) was 20 to 100 nM; in assay [2] (HEKa, 6 h), more than 100 nM; in the assay with HeLa cells (HeLa), more than 350000 nM.

On to `COc1cccc(N(C)C(=O)O[C@H]2C(C)=C[C@]34C(=O)[C@@H](C=C(CO)[C@@H](O)[C@]23O)[C@H]2[C@@H](C[C@H]4C)C2(C)C)c1` [Compound 748, Ingenol 3-(N-methyl-N-(3-methoxy-phenyl)-carbamate)], for which the EC50 was less than 20 nM in assay [1] (setting [3]); 20 to 100 nM in assay [2] (HEKa, 6 h); 150000 to 350000 nM in the assay on HeLa cells (HeLa).

`CC1=C[C@]23C(=O)[C@@H](C=C(CO)[C@@H](O)[C@]2(O)[C@H]1OC(=O)N(C)c1nc(C)cs1)[C@H]1[C@@H](C[C@H]3C)C1(C)C` [Compound 752, Ingenol 3-(N-methyl-N-(4-methylthiazol-2-yl)-carbamate)]: the EC50 in assay [1] (setting [3]) is less than 20 nM; in assay [2] (HEKa, 6 h) it was less than 20 nM; in the assay on HeLa cells (HeLa), 150000 to 350000 nM.

For `CC1=C[C@]23C(=O)[C@@H](C=C(CO)[C@@H](O)[C@]2(O)[C@H]1OC(=O)N(C)c1ccc(C#N)cc1)[C@H]1[C@@H](C[C@H]3C)C1(C)C` [Compound 753, Ingenol 3-(N-(4-cyano-phenyl)-N-methyl-carbamate)], the EC50 in assay [1] (setting [3]) was 20 to 100 nM; in assay [2] (HEKa, 6 h), 20 to 100 nM; with HeLa cells (HeLa), 150000 to 350000 nM.

In the case of `C/C=C(/C)C(=O)O[C@H]1C(C)=C[C@]23C(=O)[C@@H](C=C(CO)[C@@H](O)[C@]12O)[C@H]1[C@@H](C[C@H]3C)C1(C)C` [Ingenol mebutate, Ingenol-3-angelate, reference compound], the EC50 in assay [1] (PMN from buffy coats, 40 min at RT, hydroethidine fluorescence, read-out: Neutrophil oxidative burst Rel EC50 range) is less than 20 nM; in assay [2] (HeKa cells, 6 h at 37° C., IL-8 by MSD assay, normalized to 1.5×10^−7 M PEP0005) it was less than 20 nM; in the assay on HeLa cells (HeLa cells, 30 min at 37° C., PrestoBlue, AbsEC50, normalized to 400 μM ingenol mebutate), 150000 to 350000 nM.
